Results on nine compounds are retold here after US4073888A, “Chlorine dioxide and quaternary ammonium salts as sterilizing agents” (priority 1975, dated 1978).

Data set [1] has as its system spores. The experiment in a line: effectiveness of quaternary salts with chlorine dioxide. The data set is classed as cell-based. The settings on record: for results with chlorine dioxide in the testing embodiments: employed with chlorine dioxide; for effectiveness with chlorine dioxide: used with chlorine dioxide for the purposes of the invention.
For data set [2], the system named is Bacillus subtilis. Nature of the data set: Comparative Sporicidal Test, didecyl dimethyl ammonium chloride alone. Type of data set: cell-based, Bacillus subtilis 19659. To be noted: ten minutes contact; for Number Positive, Tube 1 (original culture) / Number Positive, Tube 2 (subculture): of 10. How it is done:
For further comparative purposes it was also decided to test the sporicidal activity of didecyl dimethyl ammonium chloride used alone and employing the bacteria and method described below.
Porcelain penicylinders (Fisher Scientific #7-907)
Incubation Time and Temperature
In the above Table 4, Tube 1 is the original culture and Tube 2 is the subculture of Tube 1.
The active ingredient in these tests was didecyl dimethyl ammonium chloride.
In the above Table 4, the identification of the 1% solution and 0.4% solution refers to the level of total quaternary compound being tested.

The conditions of data set [3]: solutions; cited from earlier work.
Data set [4] deals with spores. The settings on record: cited from earlier work.
Data set [5] relates to Bacillus subtilis. Nature of the data set: Comparative Sporicidal Test, chlorine dioxide alone. To be noted: dilutions 1:10 and 1:25.
For data set [6] the following is noted: cited from earlier work.

“Also recorded” adds a separate entry of the source.

For the compound `CCCCCCCCCC[N+](C)(C)CCCCCCCCCC.[Cl-]` [Didecyl Dimethyl Ammonium Chloride, didecyl dimethyl ammonium chloride], in the data set on spores [1], the “results with chlorine dioxide in the testing embodiments” value (shortened to “results with chlorine dioxide”) is recorded as “outstanding results” and the “effectiveness with chlorine dioxide” value is on record as “highly effective”. In the data set on Bacillus subtilis [2] (0.4% solution), the “Number Positive, Tube 1 (original culture)” value was 0 and the “Number Positive, Tube 2 (subculture)” value was 10. For the same compound, in the data set with Bacillus subtilis [2] (1% solution), the “Number Positive, Tube 1 (original culture)” value is 0 and the “Number Positive, Tube 2 (subculture)” value came out at 9. Moreover, the “sporicidal activity (conclusion)” value with Bacillus subtilis [2] (used alone, 1% and 0.4%) is “poor sporicidal activity; also recorded: only a static effect and not a cidal effect; also recorded: not sporicidal”.
As to `CCCCCCCCCCCCCCCC[N+](C)(C)C.[Br-]` [cetyl trimethyl ammonium bromide, reference compound], in the data set on spores [1], the “effectiveness with chlorine dioxide” value was “ineffective”.
Turning to `[O][Cl+][O-]` [chlorine dioxide], the “bactericidal, fungicidal, taste and odor control properties” value in data set [3] was “excellent bactericidal, fungicidal, and taste and odor control properties”. Besides, in the data set with spores [4] (alone in aqueous solutions), the sporicidal activity result is “not sporicidal”. Moreover, in the data set on Bacillus subtilis [5], the “outcome before 21 day observation period” value is reported as “failed completely”. Further, in the data set on Bacillus subtilis [5] (2-12 hours contact), the “sporicidal activity (conclusion)” value is “does not show satisfactory sporicidal activity; also recorded: failure as a sporicide”. Besides, the sporicidal test outcome with Bacillus subtilis [5] (twelve hours contact) was “not passed”.
Consider `O=CCCCC=O` [glutaraldehyde], for which the shelf-life after activation in data set [6] is 14 days. For the same compound, the “time required to kill spores” value with spores [4] (commercial sporicidal composition) was 10 h.
`CCCCCCCCCCCC[N+](C)(C)CCCCCCCCCCCC.[Cl-]` [Didodecyl dimethyl ammonium chloride]: in the data set on spores [1], the “results with chlorine dioxide” value is recorded as “outstanding results” and the “effectiveness with chlorine dioxide” value is “highly effective”.
The like results for `CCCCCCCCCCCC[N+](C)(C)CCCCCCCC.[Cl-]` [Octyl-dodecyl dimethyl ammonium chloride] were, in that order, “outstanding results” and “highly effective”.
`CCCCCCCCCC[N+](C)(C)CCCCCCCC.[Cl-]` [Octyl-decyl dimethyl ammonium chloride]: the “results with chlorine dioxide” value in the data set on spores [1] is given as “outstanding results”.
Consider `CCCCCCCCCCCCCCCC[N+](C)(C)Cc1ccccc1.[Cl-]` [hexadecyldimethyl benzyl ammonium chloride, reference compound], for which the “effectiveness with chlorine dioxide” value in the data set with spores [1] is “ineffective”.
Still for that read-out and setting: the same measure for `CCCCCCCCCCCC(=O)OCCNC(=O)C[n+]1ccccc1` [lauric acid ester of colaminoformylmethyl pyridinium chloride, reference compound]: “ineffective”.
